Test results as given in ChEMBL document CHEMBL1201862, “PubChem BioAssay data set” (2004).
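Values below derive from 48-hour exposures of cells grown in 96-well plates, with endpoints linearly interpolated between the two concentrations bracketing the appropriate inhibition level. At the GI50, growth is halved.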 The source made the active and inactive calls. Cut-off read from the data, not from the text of the source: active = GI50 up to about 1.1 µM and inactive = higher.

Columns and labels:
Experiment in all cases: growth of human tumour cells (NCI), 48 h
MCF7 = tested on: MCF7
SNB-19 = tested on: SNB-19
OVCAR-8 = tested on: OVCAR-8
COLO 205 = tested on: COLO 205
Hs-578T = tested on: Hs-578T
SK-OV-3 = tested on: SK-OV-3
K562 = tested on: K562
SK-MEL-2 = tested on: SK-MEL-2
M14 = tested on: M14
BT-549 = tested on: BT-549
NCI-H226 = tested on: NCI-H226
OVCAR-3 = tested on: OVCAR-3
HOP-62 = tested on: HOP-62
MDA-N = tested on: MDA-N
PC-3 = tested on: PC-3
DU-145 = tested on: DU-145
SR = tested on: SR
RPMI-8226 = tested on: RPMI-8226
OVCAR-5 = tested on: OVCAR-5
Malme-3M = tested on: Malme-3M

Measured: GI50

CC[C@@H](/C=C\CCC1(C[C@@H](N)CCC=C(C)C)OCCO1)O[Si](C(C)C)(C(C)C)C(C)C
inactive: MCF7 16.3 µM | SNB-19 18.5 µM | OVCAR-8 11.9 µM | COLO 205 13.6 µM | Hs-578T 26 µM | SK-OV-3 20 µM | K562 10.8 µM | SK-MEL-2 17.3 µM | M14 18.5 µM | BT-549 20.1 µM | NCI-H226 17.4 µM | OVCAR-3 18.7 µM | HOP-62 22 µM | MDA-N 16.4 µM | PC-3 16.1 µM | DU-145 19.8 µM | SR 3.27 µM | RPMI-8226 17.9 µM | OVCAR-5 17.2 µM

CCOC(=O)c1ccc(Nc2nc3ccccc3n3cccc23)cc1
inactive: MCF7 32 µM | SNB-19 52.5 µM | OVCAR-8 47.8 µM | Malme-3M > 100 µM | COLO 205 > 100 µM | Hs-578T 42.9 µM | SK-OV-3 27.4 µM | K562 29.8 µM | SK-MEL-2 34.6 µM | M14 > 100 µM | BT-549 > 100 µM | OVCAR-3 70 µM | HOP-62 25.7 µM | MDA-N 3.15 µM | PC-3 36.6 µM | DU-145 86.1 µM | SR 8.97 µM | RPMI-8226 > 100 µM | OVCAR-5 > 100 µM

OCC1OC(NC(=S)NCSCCC(F)(F)C(F)(F)C(F)(F)C(F)(F)C(F)(F)C(F)(F)F)C(O)C(O)C1O (stereo not drawn)
inactive: MCF7 40.8 µM | SNB-19 36.6 µM | Malme-3M 73.8 µM | COLO 205 77.4 µM | Hs-578T 33.5 µM | SK-OV-3 82 µM | K562 19.9 µM | SK-MEL-2 51.6 µM | M14 17 µM | BT-549 > 100 µM | OVCAR-3 86.9 µM | HOP-62 32.4 µM | MDA-N 43.6 µM | PC-3 33.6 µM | DU-145 81.8 µM | SR 49.3 µM | RPMI-8226 63.8 µM | OVCAR-5 56.1 µM

COc1cc(NCC2COc3c(ccc(OC)c3OC)C2=O)c([N+](=O)[O-])cc1OC (stereo not drawn)
inactive: MCF7 39.3 µM | SNB-19 > 100 µM | OVCAR-8 > 100 µM | COLO 205 54.7 µM | Hs-578T 95.3 µM | SK-OV-3 > 100 µM | K562 31 µM | SK-MEL-2 > 100 µM | M14 > 100 µM | BT-549 > 10 µM | NCI-H226 > 100 µM | OVCAR-3 > 100 µM | HOP-62 > 100 µM | MDA-N > 100 µM | PC-3 94 µM | DU-145 > 100 µM | SR 30.8 µM | RPMI-8226 12.3 µM | OVCAR-5 > 100 µM

OCC1NCC(O)C(O)C1O (stereo not drawn)
inactive: MCF7 > 100 µM | SNB-19 > 100 µM | OVCAR-8 > 100 µM | Malme-3M 22.4 µM | COLO 205 > 100 µM | Hs-578T > 100 µM | SK-OV-3 > 100 µM | M14 > 100 µM | BT-549 > 100 µM | OVCAR-3 > 100 µM | HOP-62 > 100 µM | MDA-N > 100 µM | PC-3 > 100 µM | DU-145 > 100 µM | SR > 100 µM | RPMI-8226 > 100 µM | OVCAR-5 > 100 µM

CN(CO)c1nc(N(C)CO)nc(N(C)CO)n1 [TRIMELAMOL]
inactive: MCF7 16.1 µM | SNB-19 16.1 µM | OVCAR-8 14.5 µM | Malme-3M 12.8 µM | COLO 205 8.53 µM | Hs-578T 27.8 µM | SK-OV-3 21.9 µM | K562 18.7 µM | M14 21.8 µM | BT-549 20.9 µM | OVCAR-3 27.7 µM | HOP-62 20 µM | MDA-N 20.6 µM | PC-3 21.8 µM | DU-145 25.7 µM | SR 39.6 µM | RPMI-8226 3.98 µM | OVCAR-5 26.4 µM

O=C(Nc1nn(C(=O)c2ccc(Cl)cc2)c(=O)s1)c1ccc(Cl)cc1
inactive: MCF7 > 100 µM | SNB-19 > 100 µM | OVCAR-8 > 100 µM | Malme-3M > 100 µM | COLO 205 > 100 µM | Hs-578T > 100 µM | SK-OV-3 > 100 µM | K562 77.8 µM | M14 > 100 µM | BT-549 > 100 µM | NCI-H226 > 100 µM | OVCAR-3 > 100 µM | HOP-62 > 100 µM | MDA-N > 100 µM | PC-3 > 100 µM | DU-145 > 100 µM | SR > 100 µM | OVCAR-5 > 100 µM

COCCN1C(=O)C2c3[nH]c4ccccc4c3C3CCC(C(C)(C)C)CC3C2C1=O (stereo not drawn)
inactive: MCF7 18.4 µM | SNB-19 19.1 µM | OVCAR-8 20.7 µM | COLO 205 18.2 µM | Hs-578T 17.2 µM | SK-OV-3 20.2 µM | K562 18.9 µM | M14 18.5 µM | BT-549 18.8 µM | NCI-H226 22.1 µM | OVCAR-3 17.5 µM | HOP-62 18.6 µM | MDA-N 14.5 µM | PC-3 13.4 µM | DU-145 19.1 µM | SR 11.7 µM | RPMI-8226 15.2 µM

CC(C)NC(=O)OCC[S+]([O-])c1c(Cl)c(Cl)nn1C (stereo not drawn)
inactive: MCF7 29.4 µM | SNB-19 > 100 µM | OVCAR-8 > 10 µM | COLO 205 21.2 µM | Hs-578T > 100 µM | SK-OV-3 > 100 µM | K562 34 µM | SK-MEL-2 > 100 µM | M14 21.1 µM | BT-549 > 10 µM | NCI-H226 > 100 µM | OVCAR-3 40.2 µM | HOP-62 69.3 µM | MDA-N 38.7 µM | PC-3 > 100 µM | DU-145 > 100 µM | SR 48.9 µM | RPMI-8226 64.9 µM | OVCAR-5 49 µM

CC(=O)OCC1OC(N2C(=O)/C(=C\c3ccc(Cl)cc3)C(N)=Nc3ccccc32)C(OC(C)=O)C(OC(C)=O)C1OC(C)=O (stereo not drawn)
inactive: MCF7 11.8 µM | SNB-19 37.8 µM | OVCAR-8 13.8 µM | Malme-3M 28.2 µM | COLO 205 12.1 µM | Hs-578T 28.4 µM | SK-OV-3 51.1 µM | K562 12.5 µM | SK-MEL-2 25.4 µM | M14 20.2 µM | BT-549 27.9 µM | OVCAR-3 15.4 µM | HOP-62 29.2 µM | MDA-N 17.6 µM | PC-3 20.6 µM | DU-145 28.8 µM | SR 16.4 µM | RPMI-8226 2.24 µM | OVCAR-5 33.4 µM

Cc1cc(S(=O)(=O)[N-]C(=C(C#N)C#N)[n+]2ccc(N(C)C)cc2)c(SCC(=O)O)cc1Cl
inactive: MCF7 > 100 µM | SNB-19 > 100 µM | OVCAR-8 > 100 µM | Malme-3M 22.6 µM | COLO 205 > 100 µM | Hs-578T > 100 µM | SK-OV-3 > 100 µM | K562 > 100 µM | SK-MEL-2 > 100 µM | M14 > 100 µM | BT-549 > 100 µM | NCI-H226 > 100 µM | OVCAR-3 > 100 µM | HOP-62 > 100 µM | MDA-N > 100 µM | PC-3 > 100 µM | DU-145 > 100 µM | RPMI-8226 > 100 µM | OVCAR-5 > 100 µM

On1c(-c2ccccc2)nc2ccccc2c1=S
inactive: MCF7 6.9 µM | SNB-19 12.3 µM | OVCAR-8 4 µM | Malme-3M 5 µM | COLO 205 3.12 µM | Hs-578T 16.5 µM | SK-OV-3 6.92 µM | K562 3.91 µM | SK-MEL-2 8.75 µM | M14 2.91 µM | BT-549 > 100 µM | NCI-H226 9.16 µM | OVCAR-3 4.39 µM | HOP-62 7.35 µM | MDA-N 18.9 µM | PC-3 3.61 µM | DU-145 7.64 µM | RPMI-8226 3.27 µM | OVCAR-5 > 100 µM

CCN(CC)c1ccc2c(c1)OC(=O)C(c1nnc(-c3ccc([N+](=O)[O-])cc3)o1)C2 (stereo not drawn)
inactive: MCF7 > 100 µM | SNB-19 > 100 µM | OVCAR-8 > 100 µM | Malme-3M > 100 µM | COLO 205 > 100 µM | Hs-578T > 100 µM | SK-OV-3 > 100 µM | K562 38 µM | SK-MEL-2 > 100 µM | M14 > 100 µM | BT-549 > 100 µM | NCI-H226 > 100 µM | OVCAR-3 > 100 µM | HOP-62 > 100 µM | MDA-N > 100 µM | PC-3 > 100 µM | DU-145 > 100 µM | RPMI-8226 > 100 µM | OVCAR-5 > 100 µM

CC1=C(C(=O)NNC(=O)C[N+](C)(C)C)CC(C(=O)NNC(=O)C[N+](C)(C)C)=C(C)N1
inactive: MCF7 > 100 µM | SNB-19 > 100 µM | OVCAR-8 > 100 µM | COLO 205 > 100 µM | Hs-578T > 100 µM | SK-OV-3 > 100 µM | K562 > 100 µM | SK-MEL-2 > 100 µM | M14 > 100 µM | BT-549 > 100 µM | NCI-H226 > 100 µM | OVCAR-3 > 100 µM | HOP-62 > 100 µM | MDA-N > 100 µM | PC-3 > 100 µM | DU-145 > 100 µM | SR 35.6 µM | RPMI-8226 > 100 µM | OVCAR-5 > 100 µM

CC(=O)C(=NNc1ccc(-n2c(C)nc3ccccc3c2=O)cc1)C(C)=O
inactive: MCF7 > 100 µM | SNB-19 > 100 µM | OVCAR-8 > 100 µM | COLO 205 > 100 µM | Hs-578T > 100 µM | SK-OV-3 > 100 µM | K562 > 100 µM | SK-MEL-2 > 100 µM | M14 > 100 µM | BT-549 > 100 µM | NCI-H226 80.2 µM | OVCAR-3 > 100 µM | HOP-62 > 100 µM | MDA-N > 100 µM | PC-3 > 100 µM | DU-145 > 100 µM | SR > 100 µM | RPMI-8226 30 µM | OVCAR-5 > 100 µM
